Test results: ChEMBL document CHEMBL3885881, “DrugMatrix”

Species: Rattus norvegicus
Test: DrugMatrix - Regimen: Daily Repeat
Type: toxicity, organism-based, Sprague-Dawley
Design: regimen Daily Repeat, gender Male, age 6-8 weeks
Conditions: in vivo, po, route oral GAVAGE, vehicle 100 % SALINE; for ABSOLUTE BASOPHIL / ABSOLUTE EOSINOPHIL / ABSOLUTE LYMPHOCYTE / ABSOLUTE MONOCYTE / ABSOLUTE SEGMENTED NEUTROPHIL / BASOPHIL / EOSINOPHIL / ERYTHROCYTE COUNT / HEMATOCRIT / HEMOGLOBIN / LEUKOCYTE COUNT / LYMPHOCYTE / MEAN CORPUSCULAR HEMOGLOBIN / MEAN CORPUSCULAR HEMOGLOBIN CONCENTRATION / MEAN CORPUSCULAR VOLUME / MONOCYTE / NEUTROPHIL / NUCLEATED RED BLOOD CELLS / PLATELET COUNT: tissue Blood; for ALANINE AMINOTRANSFERASE / ALBUMIN / ALKALINE PHOSPHATASE / ASPARTATE AMINOTRANSFERASE / BLOOD UREA NITROGEN / CARBON DIOXIDE / CHLORIDE / CHOLESTEROL / CREATINE PHOSPHOKINASE / CREATININE / GLUCOSE / LACTATE DEHYDROGENASE / LIPASE / PHOSPHORUS / POTASSIUM / SODIUM / TOTAL BILIRUBIN / TOTAL PROTEIN / URIC ACID: tissue Plasma
[1] = 0 mg/kg, 72 h, dose level Control, time 3 day
[2] = 0 mg/kg, 120 h, dose level Control, time 5 day
[3] = 46 mg/kg, 72 h, dose level Low, time 3 day

SMILES: COc1ccc2cc(CC(=O)O)ccc2c1
- ABSOLUTE BASOPHIL [1]: 0 CELLS/uL
- ABSOLUTE EOSINOPHIL [1]: 26.83 CELLS/uL
- ABSOLUTE LYMPHOCYTE [1]: 12748.5 CELLS/uL
- ABSOLUTE MONOCYTE [1]: 140.5 CELLS/uL
- ABSOLUTE SEGMENTED NEUTROPHIL [1]: 1067.5 CELLS/uL
- BASOPHIL [1]: 0%
- EOSINOPHIL [1]: 0.17%
- ERYTHROCYTE COUNT [1]: 5.51 x10E6/uL
- HEMATOCRIT [1]: 34.75%
- HEMOGLOBIN [1]: 13.65 G/DL
- LEUKOCYTE COUNT [1]: 13.98 x10E3/uL
- LYMPHOCYTE [1]: 91.17%
- MEAN CORPUSCULAR HEMOGLOBIN [1]: 24.8 pg
- MEAN CORPUSCULAR HEMOGLOBIN CONCENTRATION [1]: 39.33 G/DL
- MEAN CORPUSCULAR VOLUME [1]: 63.03 fL
- MONOCYTE [1]: 1%
- NEUTROPHIL [1]: 7.67%
- NUCLEATED RED BLOOD CELLS [1]: 0 /100WBC
- PLATELET COUNT [1]: 1278.17 x10E3/uL
- ALANINE AMINOTRANSFERASE [1]: 52.17 u/L
- ALBUMIN [1]: 4.07 G/DL
- ALKALINE PHOSPHATASE [1]: 416.83 u/L
- ASPARTATE AMINOTRANSFERASE [1]: 109.67 u/L
- BLOOD UREA NITROGEN [1]: 16.83 mg/dL
- CARBON DIOXIDE [1]: 28 mmol/L
- CHLORIDE [1]: 100.83 MEQ/L
- CHOLESTEROL [1]: 69 mg/dL
- CREATINE PHOSPHOKINASE [1]: 1155.67 u/L
- CREATININE [1]: 0.32 mg/dL
- GLUCOSE [1]: 186.5 mg/dL
- LACTATE DEHYDROGENASE [1]: 345.67 u/L
- LIPASE [1]: 12.17 u/L
- PHOSPHORUS [1]: 12.45 mg/dL
- POTASSIUM [1]: 6.85 MEQ/L
- SODIUM [1]: 141.4 MEQ/L
- TOTAL BILIRUBIN [1]: 0.23 mg/dL
- TOTAL PROTEIN [1]: 5.63 G/DL
- URIC ACID [1]: 2.22 mg/dL
- ABSOLUTE BASOPHIL [2]: 0 CELLS/uL
- ABSOLUTE EOSINOPHIL [2]: 114.33 CELLS/uL
- ABSOLUTE LYMPHOCYTE [2]: 11655.33 CELLS/uL
- ABSOLUTE MONOCYTE [2]: 142 CELLS/uL
- ABSOLUTE SEGMENTED NEUTROPHIL [2]: 1055 CELLS/uL
- BASOPHIL [2]: 0%
- EOSINOPHIL [2]: 0.83%
- ERYTHROCYTE COUNT [2]: 5.68 x10E6/uL
- HEMATOCRIT [2]: 35.92%
- HEMOGLOBIN [2]: 14.13 G/DL
- LEUKOCYTE COUNT [2]: 12.97 x10E3/uL
- LYMPHOCYTE [2]: 90%
- MEAN CORPUSCULAR HEMOGLOBIN [2]: 24.93 pg
- MEAN CORPUSCULAR HEMOGLOBIN CONCENTRATION [2]: 39.37 G/DL
- MEAN CORPUSCULAR VOLUME [2]: 63.33 fL
- MONOCYTE [2]: 1.17%
- NEUTROPHIL [2]: 8%
- NUCLEATED RED BLOOD CELLS [2]: 0 /100WBC
- PLATELET COUNT [2]: 1234 x10E3/uL
- ALANINE AMINOTRANSFERASE [2]: 43.5 u/L
- ALBUMIN [2]: 4.23 G/DL
- ALKALINE PHOSPHATASE [2]: 331.5 u/L
- ASPARTATE AMINOTRANSFERASE [2]: 80.83 u/L
- BLOOD UREA NITROGEN [2]: 17.67 mg/dL
- CARBON DIOXIDE [2]: 31.83 mmol/L
- CHLORIDE [2]: 100.83 MEQ/L
- CHOLESTEROL [2]: 69.5 mg/dL
- CREATINE PHOSPHOKINASE [2]: 320 u/L
- CREATININE [2]: 0.26 mg/dL
- GLUCOSE [2]: 157.33 mg/dL
- LACTATE DEHYDROGENASE [2]: 364.67 u/L
- LIPASE [2]: 9.83 u/L
- PHOSPHORUS [2]: 11.05 mg/dL
- POTASSIUM [2]: 5.83 MEQ/L
- SODIUM [2]: 141.07 MEQ/L
- TOTAL BILIRUBIN [2]: 0.22 mg/dL
- TOTAL PROTEIN [2]: 5.92 G/DL
- URIC ACID [2]: 1.23 mg/dL
- ABSOLUTE BASOPHIL [3]: 0 CELLS/uL
- ABSOLUTE EOSINOPHIL [3]: 49.33 CELLS/uL
- ABSOLUTE LYMPHOCYTE [3]: 12249.33 CELLS/uL
- ABSOLUTE MONOCYTE [3]: 224.67 CELLS/uL
- ABSOLUTE SEGMENTED NEUTROPHIL [3]: 1176.67 CELLS/uL
- BASOPHIL [3]: 0%
- EOSINOPHIL [3]: 0.33%
- ERYTHROCYTE COUNT [3]: 5.54 x10E6/uL
- HEMATOCRIT [3]: 33.9%
- HEMOGLOBIN [3]: 13.13 G/DL
- LEUKOCYTE COUNT [3]: 13.7 x10E3/uL
- LYMPHOCYTE [3]: 89.67%
- MEAN CORPUSCULAR HEMOGLOBIN [3]: 23.73 pg
- MEAN CORPUSCULAR HEMOGLOBIN CONCENTRATION [3]: 38.77 G/DL
- MEAN CORPUSCULAR VOLUME [3]: 61.23 fL
- MONOCYTE [3]: 1.67%
- NEUTROPHIL [3]: 8.33%
- NUCLEATED RED BLOOD CELLS [3]: 0 /100WBC
- PLATELET COUNT [3]: 1182.67 x10E3/uL
- ALANINE AMINOTRANSFERASE [3]: 61.33 u/L
- ALBUMIN [3]: 4.13 G/DL
- ALKALINE PHOSPHATASE [3]: 328.67 u/L
- ASPARTATE AMINOTRANSFERASE [3]: 85.67 u/L
- BLOOD UREA NITROGEN [3]: 16 mg/dL
- CARBON DIOXIDE [3]: 34 mmol/L
- CHLORIDE [3]: 102.33 MEQ/L
- CHOLESTEROL [3]: 75.67 mg/dL
- CREATINE PHOSPHOKINASE [3]: 347.33 u/L
- CREATININE [3]: 0.4 mg/dL
- GLUCOSE [3]: 150.67 mg/dL
- LACTATE DEHYDROGENASE [3]: 245.33 u/L
- LIPASE [3]: 9 u/L
- PHOSPHORUS [3]: 11.63 mg/dL
- POTASSIUM [3]: 6.77 MEQ/L
- SODIUM [3]: 143.43 MEQ/L
- TOTAL BILIRUBIN [3]: 0.13 mg/dL
- TOTAL PROTEIN [3]: 5.33 G/DL
- URIC ACID [3]: 1.3 mg/dL
